Measurements reported in PubChem BioAssay (NCI).
Values joined by “and” are separate entries in the source; they are usually repeats but may differ in a detail not shown here. Equal values may be shown once.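 Cells were grown in 96-well plates and exposed to each compound for 48 hours at five concentrations; endpoints were interpolated linearly between bracketing concentrations, or set to the highest concentration if not reached. The concentration for 50% growth inhibition is given as GI50. TGI marks complete inhibition of growth.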

What was measured:
[1] = tested on: P388/ADR leukemia; test: NCI tumour cell line growth inhibition, 48 h
[2] = tested on: P388 leukemia; test: NCI tumour cell line growth inhibition, 48 h

Compound	GI50 [1]	TGI [1]	TGI [2]	GI50 [2]
NC(=S)N/N=C/c1ccc(O)cn1	943 nM and 1500 nM	154 µM and 24.5 µM	8.3 µM	–
CCOC(=O)NC1=C(N2CC2)C(=O)C(NC(=O)OCC)=C(N2CC2)C1=O	–	17.6 µM	14 µM	–
CC(C)[NH-].CC(C)[NH-].O.O.[Cl][Pt+2][Cl]	8110 nM	59.9 µM	37.9 µM	6.66 µM
O=C(NCCCCCCNC(=O)n1cc(F)c(=O)[nH]c1=O)NCCCOCCOCCOCCOCCOCCOCCOCCOCCOCCOCCOCCOCCOCCOCCOCCOCCOCCOCCOCCOCCOCCCNC(=O)C(O)C(O)C(OC1OC(CO)C(O)C(O)C1O)C(O)CO (stereo not drawn)	–	> 100 µM	> 100 µM	–
OC(C1CO1)C(O)C1CO1 (stereo not drawn)	–	150 µM	150 µM	–
